What all share (test): Post-emergence efficacy, Method A
Format in all cases: in vivo

The test system of one assay is Lolium perenne (LOLPE). The following applies: Lolium perenne, post-emergence, 312 h, evaluated after 13 days. The essentials: (§1)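 Post-emergence spray on 14-day-old glasshouse plants (24/16 °C day/night, 14 h photoperiod, 65% humidity). Test material was taken up in acetone and IF50 emulsifier mix, then diluted with sodium lauryl ether sulphate (0.25% or 1%) plus 1% ammonium sulphate. Damage was rated 13 days later, 100 = total.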

Assay [1] deals with Digitaria sanguinalis (DIGSA). The following applies: Digitaria sanguinalis, post-emergence, 312 h, evaluated after 13 days. The essentials:
as §1

In another assay the test system is Setaria faberi (SETFA). The following applies: Setaria faberi, post-emergence, 312 h, evaluated after 13 days. The procedure, abridged:
as §1

In assay [2] the test system is Euphorbia heterophylla (EPHHL). The following applies: Euphorbia heterophylla, post-emergence, 312 h, evaluated after 13 days. The essentials:
as §1

Assay [3] relates to Chenopodium album (CHEAL). The following applies: Chenopodium album, post-emergence, 312 h, evaluated after 13 days. The essentials:
as §1

Assay [4] concerns Ipomoea hederacea (IPOHE). The following applies: Ipomoea hederacea, post-emergence, 312 h, evaluated after 13 days. The procedure, abridged:
as §1

Assay [5] deals with Echinochloa crus-galli (ECHCG). The following applies: Echinochloa crus-galli, post-emergence, 312 h, evaluated after 13 days. The procedure, abridged:
as §1

The next assay concerns Eleusine indica (ELEIN). The following applies: Eleusine indica, post-emergence, 312 h, evaluated after 13 days. The procedure, abridged: as §1
The subject of assay [6] is Amaranthus palmeri (AMAPA). The following applies: Amaranthus palmeri, post-emergence, 312 h, evaluated after 13 days. The procedure, abridged:
as §1

[7] abbreviates: Application rate 500 g/Ha, 100=total damage to plant, 0=no damage to plant, read-out: Control of weed species after post-emergence application, LOLPE.
[8] abbreviates: Application rate 500 g/Ha, 100=total damage to plant, 0=no damage to plant, read-out: Control of weed species after post-emergence application, DIGSA.
[9] abbreviates: Application rate 500 g/Ha, 100=total damage to plant, 0=no damage to plant, read-out: Control of weed species after post-emergence application, SETFA.
[10] abbreviates: Application rate 500 g/Ha, 100=total damage to plant, 0=no damage to plant, read-out: Control of weed species after post-emergence application, EPHHL.
Setting [11] is: Application rate 500 g/Ha, 100=total damage to plant, 0=no damage to plant, read-out: Control of weed species after post-emergence application, CHEAL.
Setting [12] is: Application rate 500 g/Ha, 100=total damage to plant, 0=no damage to plant, read-out: Control of weed species after post-emergence application, IPOHE.
Setting [13] is: Application rate 500 g/Ha, 100=total damage to plant, 0=no damage to plant, read-out: Control of weed species after post-emergence application, ECHCG.
Setting [14] is: Application rate 500 g/Ha, 100=total damage to plant, 0=no damage to plant, read-out: Control of weed species after post-emergence application, ELEIN.
[15] abbreviates: Application rate 500 g/Ha, 100=total damage to plant, 0=no damage to plant, read-out: Control of weed species after post-emergence application, AMAPA.
Where [16] appears, read: Application Rate 500 g/Ha, Method A, read-out: Control of weed species after post-emergence application, LOLPE (100=total damage to plant; 0=no damage to plant).
Where [17] appears, read: Application Rate 500 g/Ha, Method A, read-out: Control of weed species after post-emergence application, DIGSA (100=total damage to plant; 0=no damage to plant).
Where [18] appears, read: Application Rate 500 g/Ha, Method A, read-out: Control of weed species after post-emergence application, SETFA (100=total damage to plant; 0=no damage to plant).
Where [19] appears, read: Application Rate 500 g/Ha, Method A, read-out: Control of weed species after post-emergence application, EPHHL (100=total damage to plant; 0=no damage to plant).
[20] abbreviates: Application Rate 500 g/Ha, Method A, read-out: Control of weed species after post-emergence application, CHEAL (100=total damage to plant; 0=no damage to plant).
Where [21] appears, read: Application Rate 500 g/Ha, Method A, read-out: Control of weed species after post-emergence application, IPOHE (100=total damage to plant; 0=no damage to plant).
Setting [22] is: Application Rate 500 g/Ha, Method A, read-out: Control of weed species after post-emergence application, ECHCG (100=total damage to plant; 0=no damage to plant).
[23] abbreviates: Application Rate 500 g/Ha, Method A, read-out: Control of weed species after post-emergence application, ELEIN (100=total damage to plant; 0=no damage to plant).
Where [24] appears, read: Application Rate 500 g/Ha, Method A, read-out: Control of weed species after post-emergence application, AMAPA (100=total damage to plant; 0=no damage to plant).

Like-named read-outs stand apart in the source and are kept apart here.

Take `O=C([O-])CC[n+]1ccc(-c2cccc(C(F)(F)F)n2)cn1` [Compound A73]: the pest or weed control at 500 g/ha in the assay on Lolium perenne (LOLPE) (setting [7]) came out at 40%; in [1] (setting [8]), 30%; in the assay on Setaria faberi (SETFA) (setting [9]), 60%; in assay [2] (setting [10]) it was 60%; in [3] (setting [11]) it was 30%; in [4] (setting [12]), 30%. The figures for the pest or weed control at 500 g/ha (in assay [5] (setting [13]); in the assay with Eleusine indica (ELEIN) (setting [14]); in assay [6] (setting [15])) were 60%, 60% and 40%, respectively.
With `COc1ccnc(-c2cc[n+](CCS(=O)(=O)[O-])nc2)n1` [Compound A13], the pest or weed control at 500 g/ha in the assay on Lolium perenne (LOLPE) (setting [7]) worked out at 50%; in assay [1] (setting [8]), 70%; in the assay on Setaria faberi (SETFA) (setting [9]) it was 60%; in [2] (setting [10]), 70%; in [3] (setting [11]), 50%; in assay [4] (setting [12]), 50%. Further, the pest or weed control at 500 g/ha in assay [5] (setting [13]) worked out at 50%; in the assay with Eleusine indica (ELEIN) (setting [14]) it was 100%; in assay [6] (setting [15]), 100%.
Take `CCOP(=O)(CCC[n+]1ccc(-c2ncccn2)cn1)OCC` [Compound A204]: the pest or weed control at 500 g/ha is 0% in the assay with Lolium perenne (LOLPE) (setting [16]); 0% in [1] (setting [17]); 0% in the assay on Setaria faberi (SETFA) (setting [18]); 0% in assay [2] (setting [19]); 20% in assay [3] (setting [20]); 0% in assay [4] (setting [21]). The pest or weed control at 500 g/ha in assay [5] (setting [22]) was determined as 0%; with Eleusine indica (ELEIN) (setting [23]), 0%; in [6] (setting [24]), 10%.
Turning to `O=C(O)CC[n+]1ccc(-c2ncc(CO)cn2)cn1` [Compound A162], the pest or weed control at 500 g/ha came out at 90% with Lolium perenne (LOLPE) (setting [16]); 70% in [1] (setting [17]); 70% in the assay with Setaria faberi (SETFA) (setting [18]); 80% in [2] (setting [19]); 70% in [3] (setting [20]); 10% in assay [4] (setting [21]). Moreover, the pest or weed control at 500 g/ha stood at 90% in assay [5] (setting [22]), 80% in the assay with Eleusine indica (ELEIN) (setting [23]) and 100% in [6] (setting [24]).
In the case of `COc1cnc(-c2cc[n+](CCC(=O)[O-])nc2)nc1` [Compound A38], the pest or weed control at 500 g/ha turned out to be 40% in the assay with Lolium perenne (LOLPE) (setting [7]); 100% in [1] (setting [8]); 70% in the assay with Setaria faberi (SETFA) (setting [9]); 30% in assay [2] (setting [10]); 50% in assay [3] (setting [11]); 20% in [4] (setting [12]). For the same compound, the pest or weed control at 500 g/ha in [5] (setting [13]) was 30%; in the assay with Eleusine indica (ELEIN) (setting [14]), 70%; in [6] (setting [15]) it was 100%.
Regarding `Cc1cnc(-c2cc[n+](CCS(=O)(=O)[O-])nc2)c(Cl)c1` [Compound A136], the pest or weed control at 500 g/ha in the assay on Lolium perenne (LOLPE) (setting [7]) was determined as 20%; in assay [1] (setting [8]), 60%; with Setaria faberi (SETFA) (setting [9]) it was 70%; in assay [2] (setting [10]), 30%; in [3] (setting [11]) it was 30%; in assay [4] (setting [12]) it was 30%. For the same compound, the pest or weed control at 500 g/ha in assay [5] (setting [13]) amounted to 40%; in the assay with Eleusine indica (ELEIN) (setting [14]) it was 50%; in assay [6] (setting [15]), 60%.
For the compound `CNC(=O)c1ccnc(-c2cc[n+](CCC(=O)[O-])nc2)n1` [Compound A59], the pest or weed control at 500 g/ha with Lolium perenne (LOLPE) (setting [7]) was determined as 70%; in [1] (setting [8]) it was 100%; in the assay on Setaria faberi (SETFA) (setting [9]) it was 100%; in [2] (setting [10]), 100%; in assay [3] (setting [11]), 90%; in assay [4] (setting [12]), 80%. In addition, the pest or weed control at 500 g/ha in [5] (setting [13]) amounted to 80%; in the assay with Eleusine indica (ELEIN) (setting [14]), 90%; in [6] (setting [15]), 90%.
Turning to `O=S(=O)([O-])CC[n+]1ccc(-c2ncc(Cl)cc2Cl)cn1` [Compound A142], the pest or weed control at 500 g/ha in the assay with Lolium perenne (LOLPE) (setting [7]) came to 10%; in assay [1] (setting [8]) it was 40%; in the assay on Setaria faberi (SETFA) (setting [9]), 30%; in assay [2] (setting [10]), 60%; in assay [3] (setting [11]), 20%; in assay [4] (setting [12]), 20%. The pest or weed control at 500 g/ha in assay [5] (setting [13]) came out at 40%; with Eleusine indica (ELEIN) (setting [14]), 60%; in assay [6] (setting [15]) it was 10%.
As for `Nc1cnc(-c2cc[n+](CCC(=O)[O-])nc2)nc1` [Compound A44], the pest or weed control at 500 g/ha with Lolium perenne (LOLPE) (setting [7]) is 20%; in [1] (setting [8]), 40%; with Setaria faberi (SETFA) (setting [9]), 60%; in assay [2] (setting [10]) it was 20%; in [3] (setting [11]), 10%; in assay [4] (setting [12]), 20%. Moreover, the figures for the pest or weed control at 500 g/ha (in assay [5] (setting [13]); in the assay with Eleusine indica (ELEIN) (setting [14]); in assay [6] (setting [15])) were 30%, 20% and 40%, respectively.
As for `COc1ccc(-c2cc[n+](CCCS(=O)(=O)[O-])nc2)nn1` [Compound A115], the pest or weed control at 500 g/ha amounted to 30% with Lolium perenne (LOLPE) (setting [7]); 30% in [1] (setting [8]); 60% in the assay on Setaria faberi (SETFA) (setting [9]); 30% in [2] (setting [10]); 100% in assay [3] (setting [11]); 40% in assay [4] (setting [12]). The pest or weed control at 500 g/ha worked out at 50% in assay [5] (setting [13]), 30% in the assay on Eleusine indica (ELEIN) (setting [14]) and 100% in assay [6] (setting [15]).
As for `O=S(=O)([O-])CC[n+]1ccc(-c2ccc(F)cn2)cn1` [Compound A72], the pest or weed control at 500 g/ha in the assay with Lolium perenne (LOLPE) (setting [7]) worked out at 20%; in assay [1] (setting [8]), 30%; in the assay on Setaria faberi (SETFA) (setting [9]), 40%; in assay [2] (setting [10]), 70%; in assay [3] (setting [11]), 40%; in assay [4] (setting [12]) it was 40%. Also, the pest or weed control at 500 g/ha is 40% in [5] (setting [13]), 30% in the assay on Eleusine indica (ELEIN) (setting [14]) and 60% in assay [6] (setting [15]).
For the compound `O=C(O)CC[n+]1ccc(-c2ccnc(O)n2)cn1` [Compound A86], the pest or weed control at 500 g/ha in the assay with Lolium perenne (LOLPE) (setting [7]) was 10%; in assay [1] (setting [8]) it was 30%; with Setaria faberi (SETFA) (setting [9]) it was 40%; in assay [2] (setting [10]), 50%; in assay [3] (setting [11]), 40%; in [4] (setting [12]), 40%. Besides, the pest or weed control at 500 g/ha turned out to be 20% in assay [5] (setting [13]), 10% in the assay with Eleusine indica (ELEIN) (setting [14]) and 30% in [6] (setting [15]).

The values above are taken from patent publication US20220125051A1, “PRE-HARVEST DESICCATION METHOD” (SYNGENTA CROP PROTECTION AG, priority 2019, published 2022).
